Several values for one entry are separate records, joined by “and”; a condition that tells them apart may be missing. Identical values can stand only once.
Columns and labels:
[1] = biological target: T1, recombinant human Cox-1 (r-hu Cox1) (Homo sapiens, UniProt P23219); assay: Recombinant human PGHS-1 enzyme assay (RHUCX1); format: biochemical; conditions: for IC50: read-out: RHUCX1 IC50 (parenthetical value)
T1 construct: made in house; host or cells: baculovirus/Sf9 insect cells (microsomes)
T1 sequence (P23219 24-599): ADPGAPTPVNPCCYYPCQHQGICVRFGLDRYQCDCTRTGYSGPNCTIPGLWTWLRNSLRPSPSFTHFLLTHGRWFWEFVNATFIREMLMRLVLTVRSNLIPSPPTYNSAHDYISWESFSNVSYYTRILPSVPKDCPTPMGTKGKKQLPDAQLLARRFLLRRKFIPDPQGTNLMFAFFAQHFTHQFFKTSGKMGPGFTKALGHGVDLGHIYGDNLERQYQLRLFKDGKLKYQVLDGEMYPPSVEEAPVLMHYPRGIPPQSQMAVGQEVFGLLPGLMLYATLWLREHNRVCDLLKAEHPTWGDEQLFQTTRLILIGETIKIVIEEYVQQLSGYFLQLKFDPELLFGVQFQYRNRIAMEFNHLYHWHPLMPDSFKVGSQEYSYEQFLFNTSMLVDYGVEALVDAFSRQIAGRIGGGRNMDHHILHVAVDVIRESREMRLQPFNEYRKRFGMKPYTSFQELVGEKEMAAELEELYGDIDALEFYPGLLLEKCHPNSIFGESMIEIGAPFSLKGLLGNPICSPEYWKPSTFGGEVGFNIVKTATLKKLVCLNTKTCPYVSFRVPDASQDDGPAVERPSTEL
Outline: (§1)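 PGE2 formed with and without drug quantified by EIA against matrix-matched standards; percent inhibition relative to control mean, IC50 by linear regression.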

[2] = biological target: T2, Cox-1 in Monocyte U937 cells (Homo sapiens, UniProt P23219); assay: Monocyte U937 cell Cox-1 assay; format: cell-based; conditions: read-out: U937 IC50 (parenthetical value)
T2 construct: endogenous in cells; host or cells: U937 monocyte cells (ATCC)
T2 sequence (P23219 24-599): as above
Protocol: Human amnionic WISH cells were grown to 80% confluence in 48 well plates. Following removal of the growth medium and two washings with Geys Balanced Salt Solutn, 5 ng IL-1β /ml (UBI, Lake Placid, N.Y.) was added to the cells with or without test compound in DMSO (0.01% v/v) in Neuman-Tytell Serumless Medium (GIBCO, Grand Island, N.Y.). Following an 18 hour incubation to allow for the maximal induction of PGHS-2, the conditioned medium was removed and assayed for PGE2 content by EIA analysis as described above.
Monocyte U937 (ATCC, Rockville, Md.) cells were grown in a similar fashion to the WISH cells. After incubation, the conditioned medium was removed and assayed for […] by EIA analysis as described above.

[3] = biological target: T3, recombinant human Cox-2 (r-hu Cox-2) (Homo sapiens, UniProt P35354); assay: Recombinant human PGHS-2 enzyme assay (RHUCX2); format: biochemical; conditions: for IC50: read-out: RHUCX2 IC50 (parenthetical value)
T3 construct: made in house; host or cells: baculovirus/Sf9 insect cells (microsomes)
T3 sequence (P35354 18-604): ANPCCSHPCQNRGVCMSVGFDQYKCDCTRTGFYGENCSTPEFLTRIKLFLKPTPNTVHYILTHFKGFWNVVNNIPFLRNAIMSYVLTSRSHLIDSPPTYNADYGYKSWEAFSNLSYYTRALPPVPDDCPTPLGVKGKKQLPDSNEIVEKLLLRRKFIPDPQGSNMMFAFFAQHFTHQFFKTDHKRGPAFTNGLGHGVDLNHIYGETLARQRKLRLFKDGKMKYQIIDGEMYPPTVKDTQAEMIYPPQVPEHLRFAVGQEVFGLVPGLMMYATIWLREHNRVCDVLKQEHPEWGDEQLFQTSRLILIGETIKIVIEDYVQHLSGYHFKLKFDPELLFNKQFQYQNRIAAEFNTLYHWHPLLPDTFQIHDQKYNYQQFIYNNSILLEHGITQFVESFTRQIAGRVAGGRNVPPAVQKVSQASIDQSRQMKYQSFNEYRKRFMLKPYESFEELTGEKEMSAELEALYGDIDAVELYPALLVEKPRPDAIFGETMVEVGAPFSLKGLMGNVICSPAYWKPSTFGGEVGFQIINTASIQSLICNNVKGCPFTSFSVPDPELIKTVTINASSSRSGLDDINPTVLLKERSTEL
Outline: as §1

[4] = system: prostaglandin biosynthesis in vivo (pleural lavage eicosanoids); assay: Rat carrageenan pleural inflammation (CIP) model; conditions: 10 mpk oral; for inhibition in vivo at 10 mg/kg: 4 h, read-out: CIP % Inhib. @ 10 mpk
Protocol: For oral administration, test compounds were suspended on the day of use in 100% polyethyleneglycol (PEG 400) with a motorized homogenizer equipped with a Teflon-coated pestle (TRI-R Instrument, Jamaica, N.Y.).
To compare the mean responses of the treatment groups, analysis of variance was applied. Percent inhibition values were determined by comparing the individual treatment mean values to the mean of the control group. Linear regression was used to estimate IC50's/ED50's in appropriate assays.
Pleural inflammation was induced in male adrenalectomized Sprague-Dawley rats following the method of Vinegar et al., Fed. Proc. 1976, 35, 2447-2456. Animals were orally dosed with experimental compounds, 30 minutes prior to the intrapleural injection of 2% lambda carrageenan (Sigma Chemical Co., St. Louis Mo.). Four hours later the animals were euthanized and the pleural cavities lavaged with ice cold saline. The lavage fluid was then added to two volumes of ice cold methanol (final methanol concentration 66%) to lyse cells and precipitate protein. Eicosanoids were determined by EIA as described above.

[5] = system: carrageenan induced paw edema; assay: Carrageenan induced paw edema (CPE) in rats; format: in vivo; conditions: rat; for inhibition in vivo at 10 mg/kg: read-out: CPE % Inhib. @ 10 mpk
Outline: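 Male Sprague-Dawley rats (170–190 g) dosed orally in PEG 400, 1 h before subplantar 0.1 ml 1% lambda carrageenan in right hindpaw. Plethysmographic paw volume at 0 and 3 h; edema as difference, % inhibition versus control mean (±SEM), Dunnett's test, ED50 by linear regression.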

[6] = system: air pouch prostaglandin biosynthesis (Cox-2); assay: Carrageenan induced air pouch prostaglandin biosynthesis model (CAP); format: in vivo, rat; conditions: for inhibition in vivo at 3 mg/kg: 4 h, read-out: CAP % Inhib. @ 3 mpk
Outline: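 Male Sprague Dawley rats with dorsal air pouches (20 mL air day 0, 10 mL day 3) received 0.2% lambda carrageenan in saline into the pouch on day 7. Compounds dosed at 0.1 to 10 mg/kg 30 min before carrageenan; pouch lavaged 4 h later, prostaglandins measured by EIA. Percent inhibition versus control mean; ED50 by linear regression.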

[7] = biological target: T4, Human Whole Platelet Cyclooxygenase-1 (Homo sapiens, UniProt P23219); assay: Human Whole Platelet Cyclooxygenase-1 assay (HWPX); format: cell-based; conditions: read-out: HWPX IC50 (parenthetical value)
T4 construct: from tissue; host or cells: human blood: isolated platelets (A4) or heparinised whole blood (A9)
T4 sequence (P23219 24-599): as the sequence (P23219 24-599) above
Outline: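 Washed platelets from healthy-donor ACD blood were pre-incubated with compound for 10 min, then stimulated with calcium ionophore A23187 (8.8 μM final) for 10 min. Reaction stopped with cold 6 mM EDTA; thromboxane in supernatants quantified with a commercial kit.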

[8] = biological target: T5, human amnionic whole cell cyclooxygenase-2 (WISH cells) (Homo sapiens, UniProt P35354); assay: IL-1β induced PGE2 production in WISH cells; format: cell-based; conditions: read-out: Wish IC50 (parenthetical value)
T5 construct: endogenous in cells; host or cells: human amnionic WISH cells, induced with IL-1beta
T5 sequence (P35354 18-604): T3 sequence (P35354 18-604)
Outline: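 Confluent (80%) WISH cells were stimulated with 5 ng/ml IL-1β in serum-free Neuman-Tytell medium, with or without test compound in DMSO (0.01% v/v). PGE2 in the culture medium was measured by EIA against standards prepared in the same medium, read by optical density.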

[9] = Pharmacokinetic profile (plasma concentration, half life, AUC); format: in vivo, Rat
[10] = read-out: RHUCX1 % Inh. at Dose
[11] = 10 mpk oral, 3 hours after carrageenan
[12] = read-out: RHUCX2 % Inh. at Dose

CC(C)=CCn1ncc(-c2ccc(S(C)(=O)=O)cc2)c(-c2ccc(F)cc2)c1=O [Example 24, 2-(3-Methyl-2-butenyl)-4-(4-fluorophenyl)-5-[4-(methylsulfonyl)phenyl]-3(2H)-pyridazinone]
inhibition at 10 µM [1, 10]: 0%
inhibition at 100 µM [1, 10]: 60%
IC50 [2]: 190 nM
melting point: 169 to 172 °C

CS(=O)(=O)c1ccc(-c2cnn(CC(F)(F)F)c(=O)c2-c2ccc(Cl)cc2)cc1 [Example 58, 2-(2,2,2-Trifluoroethyl)-4-(4-chlorophenyl)-5-[4-(methylsulfonyl)phenyl]-3(2H)-pyridazinone]
inhibition at 100 µM [1, 10]: 0%
IC50 [3]: 950 nM
inhibition in vivo at 10 mg/kg [4]: 42%
inhibition in vivo at 10 mg/kg [5, 11]: 14%
inhibition in vivo at 3 mg/kg ([6]; 3 mpk, rat): 67%
melting point: 55 to 57 °C

NS(=O)(=O)c1ccc(-c2cnn(CC(F)(F)F)c(=O)c2-c2ccc(Cl)cc2)cc1 [Example 69, 2-(2,2,2-Trifluoroethyl)-4-(4-chlorophenyl)-5-[4-(aminosulfonyl)phenyl]-3(2H)-pyridazinone]
inhibition at 100 µM [1, 10]: 2%
inhibition at 0.01 µM ([3]; 0.01 μM, read-out: RHUCX2 % Inh. at Dose): 30%
inhibition at 0.1 µM [3, 12]: 29%
inhibition at 1 µM [3, 12]: 88%
IC50 [7]: 1140 nM
IC50 [8]: 20 nM
inhibition in vivo at 10 mg/kg [4]: 61%
inhibition in vivo at 10 mg/kg [5, 11]: 45.5%
CPE ED30 ([5]; oral): ED30 = 5.4
inhibition in vivo at 3 mg/kg ([6]; 3 mpk, rat): 87%
melting point: 154 to 156 °C

NS(=O)(=O)c1ccc(-c2cnn(CC(F)(F)F)c(=O)c2-c2ccc(Cl)c(F)c2)cc1 [Example 80, 2-(2,2,2-Trifluoroethyl)-4-(4-chloro-3-fluorophenyl)-5-[4-(aminosulfonyl)phenyl]-3(2H)-pyridazinone]
inhibition at 1 µM ([1]; 1 μM, read-out: RHUCX1 % Inh. at Dose): 37%
inhibition at 10 µM [1, 10]: 41%
IC50 [3]: 64 nM
inhibition in vivo at 10 mg/kg [4]: 60%
inhibition in vivo at 10 mg/kg [5, 11]: 28.5%
inhibition in vivo at 3 mg/kg ([6]; 3 mpk, rat): 91%
melting point: 214 to 215 °C

NS(=O)(=O)c1ccc(-c2cnn(CC=C(Cl)Cl)c(=O)c2-c2ccc(F)cc2)cc1 [Example 119, 2-(3,3-Dichloro-2-2-propenyl)-4-(4-fluorophenyl)-5-[4-(aminosulfonyl)phenyl)-3(2H)-pyridazinone]
IC50 [1]: 178 nM
IC50 [3]: 27 nM
IC50 [7]: 76 nM
IC50 [8]: 1 nM
inhibition in vivo at 10 mg/kg [4]: 82%
inhibition in vivo at 10 mg/kg [5, 11]: 27%
inhibition in vivo at 3 mg/kg ([6]; 3 mpk, rat): 76%
melting point: 184 to 185 °C

CS(=O)(=O)c1ccc(-c2cnn(-c3ccc(F)c(F)c3)c(=O)c2-c2ccc(F)cc2)cc1 [Example 182, 2-(3,4-Difluorophenyl)-4-(4-fluorophenyl)-5-[4-(methylsulfonyl)phenyl]-3(2H)-pyridazinone]
IC50 [1]: 5010 nM
IC50 [3]: 70 nM
inhibition in vivo at 10 mg/kg [4]: 59%
inhibition in vivo at 10 mg/kg [5, 11]: 27%
inhibition in vivo at 3 mg/kg ([6]; 3 mpk, rat): 98%
melting point: 109 to 110 °C

CS(=O)(=O)c1ccc(-c2cnn(-c3ccccc3F)c(=O)c2-c2ccc(F)cc2)cc1 [Example 185, 2-(2-Fluorophenyl)-4-(4-fluorophenyl)-5-[4-(methlsulfonyl)phenyl]-3(2H)-pyridazinone]
CIP % Inhib. @ 10 mpk [4]: 59%
CPE % Inhib. @ 10 mpk [5, 11]: 20%
CAP % Inhib. @ 3 mpk ([6]; 3 mpk, rat): 53%

CS(=O)(=O)c1ccc(-c2cnn(-c3ccc(F)c(Cl)c3)c(=O)c2-c2ccc(F)cc2)cc1 [Example 187, 2-(3-Chloro-4-fluorophenyl)-4-(4-fluorophenyl)-5-[4-(methylsulfonyl)phenyl]-3(2H)-pyridazinone]
inhibition at 100 µM [1, 10]: 2%
IC50 [3]: 94 nM
IC50 [7]: 12600 nM
IC50 [8]: 15 nM
inhibition in vivo at 10 mg/kg [4]: 51%
inhibition in vivo at 10 mg/kg [5, 11]: 28%
inhibition in vivo at 3 mg/kg ([6]; 3 mpk, rat): 30%
melting point: 155 to 157 °C

CS(=O)(=O)c1ccc(-c2cnn(-c3ccc(Cl)c(F)c3)c(=O)c2-c2ccc(F)cc2)cc1 [Example 190]
IC50 [1]: 1880 nM
IC50 [3]: 134 nM
IC50 [7]: 9960 nM
IC50 [8]: 30 nM
inhibition in vivo at 10 mg/kg [4]: 60%
inhibition in vivo at 10 mg/kg [5, 11]: 28%
inhibition in vivo at 3 mg/kg ([6]; 3 mpk, rat): 71%
melting point: 102 to 110 °C

CC(C)CCOc1c(-c2ccc(S(C)(=O)=O)cc2)cnn(-c2ccc(F)cc2)c1=O [Example 375, 2-(4-Fluorophenyl)-4-(3-methylbutoxy)-5-[4-(methylsulfonyl)phenyl]-3(2H)-pyridazinone]
inhibition at 10 µM [1, 10]: 31%
inhibition at 100 µM [1, 10]: 46%
IC50 [3]: 180 nM
IC50 [7]: 2040 nM
IC50 [8]: 89 nM
inhibition in vivo at 10 mg/kg [5, 11]: 47%
inhibition in vivo at 3 mg/kg ([6]; 3 mpk, rat): 77.5%
ED50 ([6]; Rattus norvegicus): 0.57 mg/kg
half-life ([9]; Rat IV (3mg/kg)): 2.9 h
AUC ([9]; rat): 1.8 µM·h
concentration at 14 day ([9]; rat, oral, based on 10 mg/kg dosage, read-out: 14 day plasma micromolar concentration): 0 µM
melting point: 117 to 120 °C

NS(=O)(=O)c1ccc(-c2cnn(Cc3ccccc3)c(=O)c2-c2ccc(F)cc2)cc1 [Example 384, 2-Benzyl-4-(4-fluorophenyl)-5-[4-(aminosulfonyl)phenyl]-3(2H)-pyridazinone]
inhibition at 10 µM [1, 10]: 49%
inhibition at 100 µM [1, 10]: 82%
inhibition at 0.1 µM [3, 12]: 78%
inhibition at 1 µM [3, 12]: 99%
inhibition in vivo at 10 mg/kg [4]: 51%
inhibition in vivo at 10 mg/kg [5, 11]: 15%
inhibition in vivo at 3 mg/kg ([6]; 3 mpk, rat): 51%
melting point: 185 to 189 °C and 188 to 191 °C

NS(=O)(=O)c1ccc(-c2cnn(-c3ccc(F)c(F)c3)c(=O)c2-c2ccc(F)cc2)cc1 [Example 400]
inhibition at 100 µM [1, 10]: 27%
IC50 [3]: 142 nM
IC50 [7]: 300 nM
IC50 [8]: 26 nM
inhibition in vivo at 10 mg/kg [4]: 65%
inhibition in vivo at 10 mg/kg [5, 11]: 41%
inhibition in vivo at 3 mg/kg ([6]; 3 mpk, rat): 82.5%
melting point: 177 to 181 °C

Reference: patent US20020028938A1, “Prostaglandin endoperoxide H synthase biosynthesis inhibitors” (priority 1997, published 2002)
